US20240336657A1, “G-ALPHA-S PEPTIDE INHIBITORS AND USES THEREOF” (The Regents of the University of California, priority 2021, published 2024)
Positions of bridges follow the written chain, without caps; N, C: chain ends. Non-standard residues stand in square brackets, D forms with d. Residues, ends and D or L forms follow the SMILES beside them.

Legend:
Type in all cases: biochemical
adenylyl cyclase = biological target: T1, adenylyl cyclase (Homo sapiens, UniProt O95622+Q08462); assay: Forskolin-mediated, Gαs-independent adenylyl cyclase activation
T1 construct: C1 domain (residues 442-658, VC1) of human ADCY5; C2 domain (residues 871-1082, IIC2) of human ADCY2; made in house; host or cells: Escherichia coli BL21(DE3)
T1 sequence (O95622 442-658): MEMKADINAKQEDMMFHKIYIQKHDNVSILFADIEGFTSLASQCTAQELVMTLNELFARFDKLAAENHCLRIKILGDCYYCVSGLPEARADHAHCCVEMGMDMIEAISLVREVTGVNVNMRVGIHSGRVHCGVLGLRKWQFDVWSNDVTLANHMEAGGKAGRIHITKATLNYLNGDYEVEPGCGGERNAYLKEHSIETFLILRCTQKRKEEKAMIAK
T1 sequence (Q08462 871-1082): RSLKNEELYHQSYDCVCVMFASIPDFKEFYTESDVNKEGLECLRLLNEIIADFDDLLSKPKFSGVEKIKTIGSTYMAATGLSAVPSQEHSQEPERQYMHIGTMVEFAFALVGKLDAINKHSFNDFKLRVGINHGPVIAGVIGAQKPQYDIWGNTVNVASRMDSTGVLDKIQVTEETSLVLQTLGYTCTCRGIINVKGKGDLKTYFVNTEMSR

Gαi = Gαi (Homo sapiens, UniProt P63096); assay: Nucleotide exchange step (GDP dissociation / GTPγS binding); details: compared with Gαs
Gαi, sequence (P63096 whole entry): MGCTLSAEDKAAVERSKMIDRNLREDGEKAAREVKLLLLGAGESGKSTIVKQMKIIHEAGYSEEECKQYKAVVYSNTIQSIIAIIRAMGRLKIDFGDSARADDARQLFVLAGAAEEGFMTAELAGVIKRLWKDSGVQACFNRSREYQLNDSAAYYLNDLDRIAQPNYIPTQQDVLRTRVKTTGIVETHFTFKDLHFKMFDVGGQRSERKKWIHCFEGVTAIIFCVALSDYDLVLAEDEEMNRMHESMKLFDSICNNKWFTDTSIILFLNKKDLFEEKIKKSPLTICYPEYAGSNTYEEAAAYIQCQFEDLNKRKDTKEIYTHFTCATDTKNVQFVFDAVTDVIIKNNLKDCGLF
Experimental: Gα proteins were diluted to 400 nM in the EDTA buffer (20 mM HEPES 7.5, 150 mM NaCl, 1 mM EDTA-Na 8.0, 2 mM DTT). [^3H]GDP (1 mCi/mL, 25.2 μM) was added to a final concentration of 1.2 μM, followed by cyclic peptides addition. After incubation at 20° C. for 30 minutes, the same volume of assay buffer ([…] HEPES-Na 7.5, 150 mM NaCl, 2 mM MgCl2, and 1 mM GDP) was added to initiate [^3H]GDP dissociation. At various points, […] was removed and mixed with 390 μL of ice-cold wash buffer (20 mM HEPES 7.5, 150 mM NaCl, 20 mM MgCl2). The mixture was immediately filtered through a mixed cellulose membrane (25 mm, 0.22 μm) held by a microanalysis filter holder (EMD Millipore). The membrane was washed by ice-cold wash buffer (500 μL×3), put in a 6-mL plastic vial and air-dried (room temperature 1.5 h). 5 mL of CytoScint-ES Liquid Scintillation Cocktail was added to each vial. After incubation overnight at room temperature, the vial was used for liquid scintillation counting with a LS 6500 Multi-Purpose Scintillation Counter.
Gα proteins were diluted to 10 μM with dilution buffer (20 mM HEPES 7.5, 150 mM NaCl, 1 mM MgCl2, 2 mM DTT, and 20 μM GDP) and incubated with 5× stocks of cyclic peptides at room temperature for 2 hours. GTPγS binding was initiated by mixing with the reaction buffer at room temperature (50 nM [35S]GTPγS and 100 μM GTPγS in dilution buffer) at room temperature. […]

Gαs S275L = Gαs S275L (Homo sapiens, UniProt P63092, S275L); assay: Adenylyl cyclase activation assay in the presence of Gβ1/γ2; parameters: made in house; host or cells: Escherichia coli BL21(DE3) (Gαs, VC1, IIC2); Sf9 insect cells (Gβ1/Gγ2); details: 6.25 μM of GN13
Gαs S275L, sequence (P63092 7-380 isoform P63092-2 S261L limits assumed): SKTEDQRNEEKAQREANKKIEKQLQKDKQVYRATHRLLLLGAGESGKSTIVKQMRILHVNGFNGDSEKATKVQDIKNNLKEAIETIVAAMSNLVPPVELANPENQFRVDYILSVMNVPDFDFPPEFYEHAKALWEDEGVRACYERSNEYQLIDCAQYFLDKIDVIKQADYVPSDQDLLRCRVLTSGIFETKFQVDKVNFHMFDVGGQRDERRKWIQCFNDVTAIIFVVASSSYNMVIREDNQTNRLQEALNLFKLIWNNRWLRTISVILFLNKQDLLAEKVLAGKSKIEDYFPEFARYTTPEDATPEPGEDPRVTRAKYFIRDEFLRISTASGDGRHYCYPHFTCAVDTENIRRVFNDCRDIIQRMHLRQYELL
Experimental: GN13 inhibition of Gαs proteins at various concentrations (FIG. 18E).
WT Gαs and S275L mutant at a concentration of 8.5 mg/mL (about 190 μM) in 20 mM HEPES 8.0, 150 mM NaCl, 5 mM MgCl2, 1 mM EDTA-Na 8.0 were diluted to a series of concentrations (4 μM, 1.33 μM, 0.44 μM, 0.15 μM, 49.4 nM, 16.5 nM, 5.5 nM, 0 nM) in dilution buffer (1×PBS 7.4, 0.1% BSA, 1 mM EDTA-Na 8.0, 2 mM DTT, 0.1 mM MgCl2) plus 1 mM GppNHp. After incubation at room temperature for 1 hour to allow nucleotide exchange, 2.5 μL of each sample was then mixed with 1 μL of MgCl2 stock (20 mM MgCl2, 1× PBS 7.4, 0.1% BSA) in an OptiPlate-384, White Opaque 384-well Microplate. 2 μL of adenylyl cyclase/Gβγ stock (2 μM VC1, 2 nM IIC2, 150 μM FSK, 1× PBS 7.4, 0.1% BSA, 10 μM Gβ1/γ2(C68S)) was added, followed by addition of 2.5 μL 25 μM GN13 stock in 1× PBS 7.4, 0.1% BSA. […] The cAMP concentrations were measured by the LANCE Ultra cAMP kit. […]
A cAMP standard curve was generated in the same plate using the 50 μM cAMP standard in the kit. […] 10 μL of each diluted sample was mixed with 5 μL of 4× Eu-cAMP tracer and 5 μL of 4× ULight-anti-cAMP in a white, opaque Optiplate-384 microplate, incubated for 1 hour at room temperature, and the time-resolved fluorescence resonance energy transfer (TR-FRET) signals were read on a Spark 20M plate reader. […]

inhibition of forskolin-mediated, Gαs-independent adenylyl cyclase activation (adenylyl cyclase): did not inhibit
sensitivity of the nucleotide exchange step of Gαi (Gαi): much less sensitive
inhibition of adenylyl cyclase activation by Gαs S275L (Gαs S275L): resistant to GN13 inhibition
Compound: CC[C@H](C)[C@@H]1NC(=O)[C@H](C)NC(=O)[C@H](Cc2ccc(O)cc2)NC(=O)[C@H](C(C)C)NC(=O)[C@H](CO)NC(=O)[C@H](CCC(=O)O)NC(=O)[C@H](Cc2ccccc2)NC(=O)[C@@H](Cc2ccc(O)cc2)NC(=O)CSC[C@@H](C(=O)NCC(N)=O)NC(=O)[C@H](CC(C)C)NC(=O)[C@H]([C@@H](C)O)NC(=O)CNC(=O)[C@H](Cc2c[nH]c3ccccc23)NC1=O [GN13] ({CH2CO}-[dY]FESVYAIWGTLCG-NH2; thioether N-13)
